The values below come from paper PMC6914780 (2019).

The test system of test [1] is SAM-VI G7C (RNA, riboswitch) GGCAUUCUGCCUCGCAUUGCACUCCGCGGGGCGAUAAGUCCUGAAAAGGGAUGUC
Nature of the test: ITC. Particulars: K+ 50 mM, Mg2+ 10 mM; 40 mM HEPES pH 7.0, 20 °C; N.D.; 0.5-1 mM ligand in syringe.

Test [2] relates to SAM-VI U8G (RNA, riboswitch) GGCAUUGGGCCUCGCAUUGCACUCCGCGGGGCGAUAAGUCCUGAAAAGGGAUGUC
Nature of the test: ITC. The conditions noted are these: K+ 50 mM, Mg2+ 10 mM; 40 mM HEPES pH 7.0, 20 °C; N.D.; 0.5-1 mM ligand in syringe.

For test [3], the system named is SAM-VI G33A (RNA, riboswitch) GGCAUUGUGCCUCGCAUUGCACUCCGCGGGGCAAUAAGUCCUGAAAAGGGAUGUC
Nature of the test: ITC. Particulars: K+ 50 mM, Mg2+ 10 mM; 40 mM HEPES pH 7.0, 20 °C; N.D.; 0.5-1 mM ligand in syringe.

Test [4] relates to SAM-VI A36C (RNA, riboswitch) GGCAUUGUGCCUCGCAUUGCACUCCGCGGGGCGAUCAGUCCUGAAAAGGGAUGUC
The test is described as follows: ITC. The conditions noted are these: K+ 50 mM, Mg2+ 10 mM; 40 mM HEPES pH 7.0, 20 °C; N.D.; 0.5-1 mM ligand in syringe.

The subject of test [5] is SAM-VI A36G/A37G/G38A (RNA, riboswitch) GGCAUUGUGCCUCGCAUUGCACUCCGCGGGGCGAUGGAUCCUGAAAAGGGAUGUC
Nature of the test: ITC. The conditions noted are these: K+ 50 mM, Mg2+ 10 mM; 40 mM HEPES pH 7.0, 20 °C; N.D.; 0.5-1 mM ligand in syringe.

In test [6] the test system is metK 65 (U39Ap) (RNA, riboswitch, 2-aminopurine at U39 (paper numbering)) GCAAACGAAAACGUAUCAUUGUGCCUCGCUGGGGAGCGGGGCGAUAAGUCCGAAAGAGGGAUGAU
The test is described as follows: 2-aminopurine fluorescence. The conditions noted are these: K+ 100 mM, Mg2+ 2 mM; 50 mM KMOPS pH 7.5, 20 °C; 0.5 µM RNA, 15 µM SAM; >3-fold fluorescence increase.

Test [7] deals with wt U39Ap SAM-VI (GAAA tetraloop) (RNA, riboswitch, 2-aminopurine at U39 (paper numbering)) GGCAUUGUGCCUCGAAAGGGGCGAUAAGUCCUGAAAAGGGAUGUC
The test is described as follows: stopped-flow 2-aminopurine fluorescence. Particulars: K+ 100 mM, Mg2+ 2 mM; 50 mM KMOPS pH 7.5, 20 °C; association rate constant.

The test system is the same in test [8]. Nature of the test: 2-aminopurine fluorescence titration. Particulars: K+ 100 mM, Mg2+ 2 mM; 50 mM KMOPS pH 7.5, 20 °C; apparent.
The test system of test [9] is SAM-VI A34C (RNA, riboswitch) GGCAUUGUGCCUCGCAUUGCACUCCGCGGGGCGCUAAGUCCUGAAAAGGGAUGUC
Nature of the test: ITC. The conditions noted are these: K+ 50 mM, Mg2+ 10 mM; 40 mM HEPES pH 7.0, 20 °C; N.D.; 0.5-1 mM ligand in syringe.

Test [10] has as its system SAM-VI U8A (RNA, riboswitch) GGCAUUGAGCCUCGCAUUGCACUCCGCGGGGCGAUAAGUCCUGAAAAGGGAUGUC
The test is described as follows: ITC. Particulars: K+ 50 mM, Mg2+ 10 mM; 40 mM HEPES pH 7.0, 20 °C; N.D.; 0.5-1 mM ligand in syringe.

The subject of test [11] is U6C U39Ap SAM-VI (RNA, riboswitch, 2-aminopurine at U39 (paper numbering)) GGCAUCGUGCCUCGAAAGGGGCGAUAAGUCCUGAAAAGGGAUGUC
The test is described as follows: 2-aminopurine fluorescence titration. Particulars: K+ 100 mM, Mg2+ 2 mM; 50 mM KMOPS pH 7.5, 20 °C; apparent.

In test [12] the test system is SAM-VI WT (B. angulatum 59 metK, U1A loop, crystallization/ITC construct) (RNA, riboswitch) GGCAUUGUGCCUCGCAUUGCACUCCGCGGGGCGAUAAGUCCUGAAAAGGGAUGUC
Nature of the test: ITC. The conditions noted are these: K+ 50 mM, Mg2+ 10 mM; 40 mM HEPES pH 7.0, 20 °C.

In test [13] the test system is SAM-VI G38C (RNA, riboswitch) GGCAUUGUGCCUCGCAUUGCACUCCGCGGGGCGAUAACUCCUGAAAAGGGAUGUC
The test is described as follows: ITC. The conditions noted are these: K+ 50 mM, Mg2+ 10 mM; 40 mM HEPES pH 7.0, 20 °C; N.D.; 0.5-1 mM ligand in syringe.

For test [14], the system named is SAM-VI A34G (RNA, riboswitch) GGCAUUGUGCCUCGCAUUGCACUCCGCGGGGCGGUAAGUCCUGAAAAGGGAUGUC
The test is described as follows: ITC. Particulars: K+ 50 mM, Mg2+ 10 mM; 40 mM HEPES pH 7.0, 20 °C; N.D.; 0.5-1 mM ligand in syringe.

Test [15] deals with SAM-VI U6C (RNA, riboswitch) GGCAUCGUGCCUCGCAUUGCACUCCGCGGGGCGAUAAGUCCUGAAAAGGGAUGUC
Nature of the test: ITC. Particulars: K+ 50 mM, Mg2+ 10 mM; 40 mM HEPES pH 7.0, 20 °C.

In test [16] the test system is U6C U39Ap SAM-VI (RNA, riboswitch, 2-aminopurine at U39 (paper numbering)) GGCAUCGUGCCUCGAAAGGGGCGAUAAGUCCUGAAAAGGGAUGUC
Nature of the test: stopped-flow 2-aminopurine fluorescence. The conditions noted are these: K+ 100 mM, Mg2+ 2 mM; 50 mM KMOPS pH 7.5, 20 °C; association rate constant.

In test [17] the test system is metK 61 (U39Ap) (RNA, riboswitch, 2-aminopurine at U39 (paper numbering)) GCAAACGAAAACGUAUCAUUGUGCCUCGCUGGGGAGCGGGGCGAUAAGUCCGAAAGAGGGA
Nature of the test: 2-aminopurine fluorescence. Particulars: K+ 100 mM, Mg2+ 2 mM; 50 mM KMOPS pH 7.5, 20 °C; 0.5 µM RNA, 15 µM SAM; no fluorescence change.

Test [18] has as its system SAM-VI A37C (RNA, riboswitch) GGCAUUGUGCCUCGCAUUGCACUCCGCGGGGCGAUACGUCCUGAAAAGGGAUGUC
Nature of the test: ITC. Particulars: K+ 50 mM, Mg2+ 10 mM; 40 mM HEPES pH 7.0, 20 °C; N.D.; 0.5-1 mM ligand in syringe.

Test [19] deals with SAM-VI U8C (RNA, riboswitch) GGCAUUGCGCCUCGCAUUGCACUCCGCGGGGCGAUAAGUCCUGAAAAGGGAUGUC
Nature of the test: ITC. Particulars: K+ 50 mM, Mg2+ 10 mM; 40 mM HEPES pH 7.0, 20 °C; N.D.; 0.5-1 mM ligand in syringe.

In general, kon refers to the second-order rate constant of association. High values mean faster complex formation, low ones slower complex formation. Consider `C[S+](CC[C@H](N)C(=O)O)C[C@H]1O[C@@H](n2cnc3c(N)ncnc32)[C@H](O)[C@@H]1O` (stereo partly drawn), for which the binding result in test [1] is “no”; in test [2], “no”; in test [3] it was “no”; in test [4] it was “no”; in test [5], “no”; in [6] it was “yes”. For the same compound, the binding entry in [9], in [10], in test [13], in test [14], in test [17] and in [18] was “no” throughout. Besides, the binding result in test [19] was “no”. Moreover, the on-rate (kon) is listed as 24,580 ± 689 M^-1 s^-1 in [7] and 62,550 ± 1900 M^-1 s^-1 in test [16]. Also, the Kd was determined as 2040 ± 110 nM in [8], 2310 ± 60 nM in test [11], 330 ± 60 nM in test [12] and 460 ± 20 nM in test [15].
Take `Nc1ncnc2c1ncn2[C@@H]1O[C@H](CN(CCO)CC[C@H](N)C(=O)O)[C@@H](O)[C@H]1O`: the kon was 17,240 ± 1140 M^-1 s^-1 in test [7] and 4230 ± 462 M⁻¹ s⁻¹ in [16]. In addition, the Kd in test [12] came out at 4400 ± 500 nM; in test [15] it was 1700 ± 300 nM.
Taken in the same sequence, the figures for `Nc1ncnc2c1ncn2[C@@H]1O[C@H](CSCC[C@H](N)C(=O)O)[C@@H](O)[C@H]1O` were 5500 ± 266 M⁻¹ s⁻¹, 1460 ± 179 M⁻¹ s⁻¹, 10900 ± 1300 nM and 2300 ± 100 nM.
